As a reminder, the melting point is the temperature, or range, at which the solid turns liquid.

For `CCn1cc(C(=O)O)c(=O)c2cc(C)sc21`, the melting point was in the range of 229 to 230 °C.

Turning to `CCCc1ccc(S(=O)(=O)n2c(CCC(=O)O)cc3cc(Cl)ccc32)cc1`, the melting point was 144 to 148 °C.

The compound `S=C(NCCC1CC(c2ccccc2)=NO1)N1CCOCC1` (configuration not stated) had a melting point of 128 to 130 °C.

As to `Clc1ncccc1-c1ncoc1-c1cccnc1Cl`, the melting point fell in the range of 157 to 158 °C.

Regarding `CC(=O)N1CCc2cc(CCN3CCC(c4noc5cc(F)ccc45)CC3)sc2C1`, the melting point lay in the range of 130 to 132 °C.

As for `CCC(O)c1c(C(C)C)nc(C(C)C)c(CO)c1-c1ccc(F)cc1` (configuration not stated), the melting point was in the range of 173 to 175 °C.

`N#Cc1cc(-c2ncccc2C(=O)O)ccc1OCCc1ccccc1Cl` had a melting point of 187 to 188 °C.

`Cc1cc(C)c2c(c1)C(=O)CC21CNC(=O)C1` (configuration not stated) displayed a melting point of 208 to 210 °C.

Compound `CC(=O)c1cc2cccc(NS(=O)(=O)c3cccs3)c2[nH]1` showed a melting point of 241 to 243 °C.

`O=c1[nH]ncc(NCCN2CCN(c3cccc4c3OCCO4)CC2)c1Cl` returned a melting point of 217 to 219 °C.

The compound `O=S(=O)(CCCCl)Nc1cccc(Oc2cccc3cccnc23)c1` had a melting point of 138 to 140 °C.

`Oc1cccc(C(O)CCCCCOc2cccc(Cl)c2)c1` (configuration not stated): the melting point was 125 to 127 °C.

Compound `Cc1cccc2[nH]c(-c3ccccc3F)nc12` gave a melting point of 161 to 162 °C.

For `COc1ccc(N2CCCn3c2nc2c(Cl)ccc(C(OCC(F)(F)F)C4CC4)c23)c(C)c1` (configuration not stated), the melting point lay in the range of 157 to 158 °C.

Consider `Cn1ccnc1N1CCN(c2ccc([N+](=O)[O-])cc2)CC1`, for which the melting point was 193 to 194 °C.

Compound `COC(=O)C1(S(=O)(=O)N2CC=C(c3ccc(Br)c(C)c3)CC2)CCOCC1` came in with a melting point of 128 to 130 °C.

In turn, `CC[C@H](C)[C@H](NC(=O)OCc1ccccc1)C(=O)N[C@@H](CO)Cc1c[nH]c2ccccc12` came in with a melting point of 198 to 199 °C.

Take `CCCC(=O)OC1CSC(Oc2cccnc2)C(OC(=O)CCC)C1OC(=O)CCC` (configuration not stated): the melting point amounted to 70 °C.

Compound `CC(C)(N)C(=O)NCCn1ccc2ncnc(Nc3ccc(Oc4cccc5sncc45)c(Cl)c3)c21` returned a melting point of 198 °C.

`CC(C)(C)COc1ccc(N)cc1C#N` came in with a melting point of 55 to 56 °C.

Compound `Cc1cc(Nc2ccc(Cl)cc2)nc(-n2ncc3ccccc32)n1` showed a melting point of 167 to 169 °C.

In the case of `CC(C)(C)NC(=O)c1ccccc1Cc1ccccc1`, the melting point was in the range of 91 to 92 °C.

For the compound `C[C@H](NC(=O)Cc1ccccc1)C(=O)N[C@@H]1C(=O)Nc2ccccc2O[C@@H]1c1ccccc1`, the melting point lay in the range of 122 to 136 °C.

Turning to `CC(=O)OCc1c2ccccc2cc2ccccc12`, the melting point lay in the range of 110 to 112 °C.

`Cn1cc(C(F)(F)F)c(CS(=O)(=O)C2=NOC(C)(C)C2)n1`: the melting point lay within 125 to 126 °C.

Compound `COc1cc(CCc2c(CO)ccc(OC)c2OC)cc(OC)c1` registered a melting point of 126 to 128 °C.

The compound `CCOC(=O)c1cnc2c(C=O)cc(CN3CCOCC3)cc2c1O` gave a melting point of 202 to 204 °C.

For `NN1CCN(Cc2c[nH]c3ccccc23)CC1`, the melting point lay within 147 to 149 °C.

Compound `COc1ccc(S(=O)(=O)Nc2cnccc2Nc2ccccc2)cc1` yielded a melting point of 201 to 202 °C.

On to `N#CC(CCCCCC(=O)O)c1ccc2ccccc2c1` (configuration not stated), for which the melting point lay in the range of 88 to 89 °C.

Take `Fc1ccc(-c2cc(CCC#Cc3ccccn3)on2)cc1`: the melting point lay within 83 to 84 °C.

For the compound `COc1cccc(CCc2ccccc2C(=O)O)c1`, the melting point was 119 to 122 °C.

`CCN1C(=O)CC2(CC(=O)N(Cc3ccccc3)C2)C1=O` (configuration not stated) registered a melting point of 125 to 126 °C.

With `CN1CCOC(C2=C(C#N)C(c3cccc4nonc34)c3c[nH]nc3N2)C1` (configuration not stated), the melting point was determined as 143 °C.

The compound `CC(C)n1nc(-c2c(-c3ccccc3)nn3cccc(OCCN(C)C)c23)ccc1=O` had a melting point of 137 to 138 °C.

For the compound `CNCC(=O)N1c2ccccc2N2CCc3cccc(c32)C1C` (configuration not stated), the melting point was 106 to 110 °C.

In the case of `CCn1c(=O)c2c(nc(/C=C/c3ccc(O)cc3)n2C)n(CC)c1=O`, the melting point was greater than 270 °C.

With `CC(C)(C)OC(=O)CCOCCc1cccc(-c2nc(=O)c3ccccc3s2)n1`, the melting point is 67.7 to 68.5 °C.

In turn, `CN(c1cccc2cc(C3=NCC(CC(=O)O)S3)[nH]c12)S(=O)(=O)c1ccccn1` (configuration not stated) came in with a melting point of 231 to 233 °C.

As to `N#Cc1cc(Cl)cc(Oc2ccc(CC(=O)Nc3ccc(S(N)(=O)=O)cc3Br)cc2Br)c1`, the melting point lay in the range of 168 to 170 °C.

For `CCOC(=O)c1cn(Cc2ccccc2)nc1NC(=O)N(C)C`, the melting point is 125 to 126 °C.

`CC(Br)C(=O)c1ccc2c(c1)C(C)NC(=O)N2` (configuration not stated) showed a melting point of 153 to 156 °C.

Turning to `Cc1ccc(-c2nc3ccc(N)cn3c2CNC(=O)CC(C)C)cc1`, the melting point lay in the range of 245 to 247 °C.

Turning to `COc1ccc(CNC(=O)C(Cc2ccccc2)NC(=O)Nc2n[nH]c(=S)s2)cc1OC` (configuration not stated), the melting point lay within 207 to 210 °C.

As for `C/C=C/CNc1cccc(-c2ccnc3c(C(=O)c4cccs4)cnn23)c1`, the melting point was in the range of 110 to 113 °C.

`CN(C)CCN1C(=O)C(NC(=O)CCc2ccc(Cl)cc2Cl)N=C(c2ccccc2)c2ccccc21` (configuration not stated): the melting point fell in the range of 199 to 201 °C.

In turn, `O=C1C=C(c2c[nH]c3ccc(OCc4ccccc4)cc23)C(=O)N1` returned a melting point of 211 °C.

Regarding `O=C1N(c2ccccc2)c2ccccc2C1(Cc1ccncc1)Cc1ccncc1`, the melting point lay within 186 to 188 °C.

Compound `Cc1cc2c(cc1C1=NNC(=O)CC1)NC(=O)CO2` showed a melting point of 255 to 257 °C.

Regarding `CCOC(=O)C1=Cc2cc(-c3ccc(OC(F)(F)F)cc3)ccc2OCC1`, the melting point lay in the range of 59 to 63 °C.

In turn, `N#Cc1ccccc1Cn1cc(-c2ccnc(NCCCO)n2)n(-c2ccc(F)cc2)c1=O` had a melting point of 166 to 167 °C.

With `O=C(Oc1ccccc1)C(I)=C(I)I`, the melting point lay in the range of 83 to 84.5 °C.

The compound `CN(C(=O)N1Cc2nc(Cc3ccccc3)n(Cc3ccccc3)c2C[C@H]1CO)c1ccccc1` returned a melting point of 80 to 87 °C.

In the case of `Cc1ccn2c(C)c(CCc3ccc4nc(N(C)C)oc4c3)nc2c1`, the melting point fell in the range of 67 to 69 °C.

As to `Cc1ccc(-c2cccc(/C=C/C(=O)Nc3ccc(CCl)cc3)c2)cc1`, the melting point lay within 178 to 180 °C.

In the case of `CNC(=O)n1cc2c(n1)-c1ccc(Cl)cc1C(c1ccccc1F)=NC2`, the melting point fell in the range of 192 to 193 °C.

Compound `O=C1c2ccccc2C(=O)N1OCCN(CCO)CCON1C(=O)c2ccccc2C1=O` came in with a melting point of 136 to 138 °C.

As to `C[C@]1(CN2CCC(OCCCc3ccc(Cl)cc3)CC2)Cn2cc([N+](=O)[O-])nc2O1`, the melting point is 88.8 to 91.9 °C.

With `COc1ccc(C(=O)O)cc1OC(=O)c1ccccc1`, the melting point is 180 to 183 °C.

Turning to `O=C(CC(=O)C(F)F)c1ccc(Br)s1`, the melting point lay in the range of 83.5 to 85 °C.

In the case of `Cn1cc(C#N)c(-c2ccco2)n1`, the melting point lay within 104 to 106 °C.

`COc1cc2ncnc(N3CCC(=O)CC3)c2cc1OC`: the melting point lay within 176 to 178 °C.

Regarding `CSC1=NC(C)C(c2ccccc2)=NN1` (configuration not stated), the melting point lay within 159 to 160 °C.

In turn, `CCOC(=O)c1ccc(OCCOC)c(OC)c1` registered a melting point of 57 to 60 °C.

On to `OCCCSC(=S)Nc1ccccn1`, for which the melting point was found to be 93 °C.

Turning to `CC(=O)OCC(=O)C1(OC(C)=O)C(C)CC2C3CC(Cl)C4=CC(=O)C=CC4(C)C34OC4CC21C` (configuration not stated), the melting point was 211 °C.

`Nc1cccc(O)c1Cl` gave a melting point of 153 °C.

`CC1(C2CCCC2)Cc2cc(OCCCC#N)c(Cl)c(Cl)c2C1=O` (configuration not stated) showed a melting point of 112 °C.

The compound `O=c1[nH]ncc2ccc(/C=C/c3ccc(O)cc3)cc12` gave a melting point of 305 to 308 °C.

Turning to `O=c1c2cc(Cl)ccc2nc(CSc2ncnc3[nH]cnc23)n1-c1ccccc1Cl`, the melting point is 237 to 238 °C.

As to `Cn1nc(C(F)(F)F)c(CSC2=NOC(C)(CCl)C2)c1O` (configuration not stated), the melting point fell in the range of 111 to 112 °C.

In turn, `Cc1ccc(-c2cncc(OC3SCC(O)C(O)C3O)c2)cc1` (configuration not stated) displayed a melting point of 228 °C.

`Cc1nccn1-c1nc(-c2ccc(C(F)(F)F)cc2)c(CCCO)o1` came in with a melting point of 127 to 129 °C.

As for `COc1ccc2c(O)c(C(=O)N(O)c3ccccc3)cnc2c1`, the melting point came to 260 °C.

The compound `Cc1cccnc1C(CO)COc1ccc(CC2SC(=O)NC2=O)cc1` (configuration not stated) registered a melting point of 182 to 183 °C.

In turn, `O[C@H](COc1cccc2[nH]ccc12)CN1CC=C(c2c[nH]c3ccc(F)cc23)CC1` registered a melting point of 95 to 100 °C.

Compound `COC(=O)c1cc(Oc2c(Cl)cc(Cl)cc2Cl)ccc1[N+](=O)[O-]` showed a melting point of 101 to 103 °C.

For the compound `CC(C)c1cccc(C(C)C)c1NC(=O)NCCN1CCN(CCSc2nc3ccccc3o2)CC1`, the melting point lay within 152 to 153 °C.

Consider `CCCN(CCC)CCc1ccc(OCc2ccccc2)c(NC(N)=O)c1`, for which the melting point fell in the range of 70 to 88 °C.

Turning to `CCN1C(=O)N(CC2CC2)c2ccc(Cl)cc2C1c1ccccc1` (configuration not stated), the melting point fell in the range of 88 to 90 °C.

`CCCC1=C(C#N)C(c2ccccc2Cl)c2c(n[nH]c2C2CC2)N1` (configuration not stated) showed a melting point of 270 °C.

Consider `COc1cccc(COC(=O)c2ncn3c2[C@@H]2CCCN2C(=O)c2c(Cl)cccc2-3)c1`, for which the melting point was 131 to 133 °C.

As for `CCOc1ncc(C(C)=O)cc1C(=O)O`, the melting point was 117 to 118 °C.

Turning to `N#Cc1cc(-c2ccc(Cl)c(Cl)c2)[nH]c1Br`, the melting point was greater than 200 °C.

The compound `CC(=O)Nc1cccnc1Cl` had a melting point of 81 to 83 °C.

As to `CCC1Cc2cc(OCC#N)c(Cl)c(Cl)c2C1=O` (configuration not stated), the melting point is 139 to 141 °C.

The compound `CCOC(=O)c1cnc2ccc(CC)nc2c1Cl` showed a melting point of 94 to 96 °C.

Turning to `Nc1cnc2c(NC(=O)c3c(Cl)cccc3Cl)cccc2c1-n1ccnc1`, the melting point was greater than 250 °C.

`Cc1cnc2ncc(-c3cccc(-c4ccccc4C#N)c3)n2n1`: the melting point fell in the range of 211 to 216 °C.

`OCc1nnc(-c2cc3c(OC[C@@H](O)CN4CCC(c5ccc(Cl)c(Cl)c5)CC4)cccc3o2)o1` registered a melting point of 158 to 160 °C.

In turn, `Cc1cc(F)c(Nc2ncnc3cc(O)ccc23)cc1O` returned a melting point of 274 to 278 °C.

`CCOC(=O)c1sc(-c2ccc(C#N)cc2)nc1COC(C)=O` registered a melting point of 127 °C.

Source of the values: a melting point compilation (Tetko et al.; mined from patent text by program, amines drawn as free bases though some values may be those of a salt).
